The results in this text go back to ChEMBL document CHEMBL1944594, “Synthesis, biological evaluation, and docking studies of tetrahydrofuran- cyclopentanone- and cyclopentanol-based ligands acting at adrenergic α₁- and serotonine 5-HT1A receptors” (J Med Chem, 2012).

Structures are written as SMILES.

Assay [1] concerns the target T1, Alpha-1D adrenergic receptor (Homo sapiens, UniProt P25100).
T1 sequence (P25100 whole entry): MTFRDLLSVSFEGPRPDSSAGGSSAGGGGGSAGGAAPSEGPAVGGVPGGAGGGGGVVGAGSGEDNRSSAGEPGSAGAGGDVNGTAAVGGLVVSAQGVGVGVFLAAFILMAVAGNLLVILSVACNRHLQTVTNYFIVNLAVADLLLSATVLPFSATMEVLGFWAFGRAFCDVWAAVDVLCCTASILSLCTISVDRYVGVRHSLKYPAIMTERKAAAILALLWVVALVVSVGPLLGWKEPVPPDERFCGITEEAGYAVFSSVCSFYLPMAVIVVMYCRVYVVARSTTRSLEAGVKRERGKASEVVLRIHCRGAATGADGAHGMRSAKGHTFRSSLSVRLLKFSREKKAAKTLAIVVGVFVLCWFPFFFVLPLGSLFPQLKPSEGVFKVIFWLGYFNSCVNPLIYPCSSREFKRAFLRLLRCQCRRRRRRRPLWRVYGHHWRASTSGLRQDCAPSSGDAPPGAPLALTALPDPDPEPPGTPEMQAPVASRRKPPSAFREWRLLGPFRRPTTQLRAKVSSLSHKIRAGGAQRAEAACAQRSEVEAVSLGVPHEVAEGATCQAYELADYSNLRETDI
Briefly: biochemical.
Description: Displacement of [3H]prazosin from human recombinant Alpha-1D adrenoceptor expressed in CHO cells after 30 mins by liquid scintillation counting

Assay [2] concerns the target T2, 5-hydroxytryptamine receptor 1A (Homo sapiens) (UniProt P08908).
T2 sequence (whole entry): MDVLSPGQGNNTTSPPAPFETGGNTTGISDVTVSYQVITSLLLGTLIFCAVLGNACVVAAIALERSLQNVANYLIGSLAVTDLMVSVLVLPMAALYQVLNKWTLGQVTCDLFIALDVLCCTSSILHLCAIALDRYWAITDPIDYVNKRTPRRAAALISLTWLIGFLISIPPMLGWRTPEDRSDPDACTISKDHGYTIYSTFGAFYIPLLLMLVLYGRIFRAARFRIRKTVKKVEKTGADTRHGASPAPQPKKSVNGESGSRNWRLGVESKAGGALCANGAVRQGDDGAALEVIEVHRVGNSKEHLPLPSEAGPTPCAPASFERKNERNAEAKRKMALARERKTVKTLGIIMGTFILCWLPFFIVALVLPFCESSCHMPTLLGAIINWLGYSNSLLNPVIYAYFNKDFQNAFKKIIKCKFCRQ
As to conditions: HeLa.
Description: Agonist activity at human recombinant 5HT1A receptor expressed in HeLa cells preincubated for 20 mins by [35S]GTPgammaS binding assay

For assay [3], the target named is T3, Alpha-1A adrenergic receptor (Rattus norvegicus) (UniProt P43140).
T3 sequence (whole entry): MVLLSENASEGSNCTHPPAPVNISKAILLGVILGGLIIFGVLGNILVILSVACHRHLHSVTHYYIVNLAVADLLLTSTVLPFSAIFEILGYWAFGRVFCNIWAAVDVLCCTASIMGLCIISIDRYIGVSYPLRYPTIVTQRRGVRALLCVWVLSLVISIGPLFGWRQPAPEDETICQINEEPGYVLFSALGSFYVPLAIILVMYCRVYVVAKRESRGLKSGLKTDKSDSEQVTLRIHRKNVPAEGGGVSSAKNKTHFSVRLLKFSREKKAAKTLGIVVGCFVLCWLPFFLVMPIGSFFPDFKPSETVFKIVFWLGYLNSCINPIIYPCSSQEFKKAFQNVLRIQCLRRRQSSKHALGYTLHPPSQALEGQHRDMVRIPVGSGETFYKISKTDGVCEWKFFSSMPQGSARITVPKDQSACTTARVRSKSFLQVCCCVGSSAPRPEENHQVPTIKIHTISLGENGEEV
Nature of the assay: Antagonist activity at alpha1A adrenoceptor in Wistar rat prostatic vas deferens assessed as inhibition of (-)-noradrenalilne-induced contraction after 30 mins. Type of assay: functional, tissue-based.

For assay [4], the target named is T4, 5-hydroxytryptamine receptor 1A (Homo sapiens, UniProt P08908).
T4 sequence (P08908 whole entry): T2 sequence (whole entry)
Nature of the assay: biochemical.

Broadly, the Ki is the equilibrium dissociation constant of an inhibitor or competing ligand from its target. Broadly, the pKb is the Kb on a negative log10 scale, so that one unit is a factor of ten.

As for `COc1ccccc1OCCNC[C@H]1CCC(c2ccccc2)(c2ccccc2)[C@@H]1O` (relative stereo), the Ki in assay [1] is 5.75 nM; in assay [4] it was 0.324 nM. For the same compound, the pD2 in assay [2] stood at 8.96. Moreover, in assay [3], the pKb was 6.57.
As for `O[C@@H]1[C@@H](CNCCOc2ccccc2)CCC1(c1ccccc1)c1ccccc1` (relative stereo), the figures for the Ki in assay [1] and in assay [4] were 93.3 nM and 9.55 nM, respectively. The compound also returned a pD2 in assay [2] of 7.94. In addition, in assay [3], the pKb amounted to 5.43.
As for `COc1ccccc1N1CCN(CC2COC(c3ccccc3)(c3ccccc3)O2)CC1` (stereo unspecified), the Ki in assay [1] was 0.813 nM; in assay [4] it was 22.9 nM. In assay [2], this compound displayed a pD2 of 8.3. Besides, the pKb in assay [3] is 8.24.
Regarding `COc1ccccc1OCCNCC1CCC(c2ccccc2)(c2ccccc2)C1=O` (stereo unspecified), the Ki is 141 nM in assay [1] and 3.47 nM in assay [4]. Besides, the pD2 in assay [2] stood at 8.37. Moreover, the pKb in assay [3] came out at 6.39.
As to `COc1ccccc1OCCNCC1CCC(c2ccccc2)(c2ccccc2)O1` (stereo unspecified), the Ki in assay [1] is 6.31 nM; in assay [4], 0.832 nM. Further, the pD2 in assay [2] was determined as 9.04. Also, in assay [3], the pKb was determined as 7.24.
On to `O[C@@H]1[C@H](CNCCOc2ccccc2)CCC1(c1ccccc1)c1ccccc1` (relative stereo), for which the Ki was above 1000 nM in assay [1] and 9.33 nM in assay [4]. For the same compound, the pD2 in assay [2] came to 7.81. For the same compound, the pKb in assay [3] turned out to be 5.23.
The like results for `COc1ccccc1N1CCN(C[C@H]2CCC(c3ccccc3)(c3ccccc3)[C@@H]2O)CC1` were, in that order, 67.6 nM, 0.794 nM, 8.74 and 6.39.
Turning to `COc1ccccc1N1CCN(C[C@H]2CCC(c3ccccc3)(c3ccccc3)[C@H]2O)CC1` (relative stereo), the Ki in assay [1] was 67.6 nM; in assay [4], 0.562 nM. Also, in assay [2], the pD2 is 9.03. Further, the pKb in assay [3] turned out to be 5.62.
For the compound `O=C1C(CNCCOc2ccccc2)CCC1(c1ccccc1)c1ccccc1` (stereo unspecified), the Ki in assay [1] is 389 nM; in assay [4], 10.5 nM. Besides, the pD2 in assay [2] turned out to be 7.44. Besides, in assay [3], the pKb is below 5.
